Experimental data reported in ChEMBL document CHEMBL1687773 (Antimicrob Agents Chemother, 2010).
Active and inactive are the calls of the source. The rule behind the calls is not given here.

Tests used:
[1] = biological target: Glutamate [NMDA] receptor (Homo sapiens) (UniProt Q05586+Q12879+Q13224+O15399+O60391+Q14957+Q8TCU5); test: Inhibition of human NMDA receptor at up to 10 uM
[2] = test system: Human immunodeficiency virus type 1 reverse transcriptase (Human immunodeficiency virus 1), Q72547 [V106A]; test: Inhibition of HIV1 histidine-tagged reverse transcriptase V106A mutant activity by primer extension assay

SMILES: CCc1nn(CCO)c(CC)c1Oc1cc(C#N)cc(C#N)c1 [LERSIVIRINE]
- inhibition [1]: inactive
- inhibition [2]: Active
